Measured values: US6756210B2, “Linoleic acid diol and glucuronide conjugate levels as diagnostic markers of disorders of abnormal regulation of cytochrome P450 metabolism of unsaturated fatty acids” (The Regents of the University of California, priority 2001, dated 2004)
Read-outs that look alike come from different tables or passages of the source.

How the values were obtained:
Human sEH (HsEH) = target: T1, Human sEH (HsEH) (Homo sapiens, UniProt P34913); experiment: Inhibition of recombinant human sEH (HsEH); assay type: biochemical; details: HsEH 0.26 μM
T1 sequence (P34913 1-555): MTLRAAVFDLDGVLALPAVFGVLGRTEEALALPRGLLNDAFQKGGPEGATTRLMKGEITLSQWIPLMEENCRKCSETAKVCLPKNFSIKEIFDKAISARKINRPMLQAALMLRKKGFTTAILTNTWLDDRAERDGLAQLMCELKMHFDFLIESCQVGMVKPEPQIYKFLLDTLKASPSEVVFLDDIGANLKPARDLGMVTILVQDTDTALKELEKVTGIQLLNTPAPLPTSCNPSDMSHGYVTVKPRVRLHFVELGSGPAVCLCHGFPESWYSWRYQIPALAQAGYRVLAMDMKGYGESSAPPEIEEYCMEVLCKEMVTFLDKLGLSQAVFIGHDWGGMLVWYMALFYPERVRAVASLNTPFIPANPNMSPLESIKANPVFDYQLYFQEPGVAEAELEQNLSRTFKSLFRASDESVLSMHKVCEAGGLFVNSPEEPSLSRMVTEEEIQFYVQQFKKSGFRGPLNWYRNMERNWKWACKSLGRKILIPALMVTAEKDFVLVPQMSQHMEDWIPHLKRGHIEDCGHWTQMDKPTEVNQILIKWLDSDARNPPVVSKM

[1] = target: T2, recombinant mouse sEH (MsEH) (Mus musculus, UniProt P34914); experiment: Inhibition of recombinant mouse sEH (MsEH); assay type: biochemical
T2 sequence (P34914 1-554): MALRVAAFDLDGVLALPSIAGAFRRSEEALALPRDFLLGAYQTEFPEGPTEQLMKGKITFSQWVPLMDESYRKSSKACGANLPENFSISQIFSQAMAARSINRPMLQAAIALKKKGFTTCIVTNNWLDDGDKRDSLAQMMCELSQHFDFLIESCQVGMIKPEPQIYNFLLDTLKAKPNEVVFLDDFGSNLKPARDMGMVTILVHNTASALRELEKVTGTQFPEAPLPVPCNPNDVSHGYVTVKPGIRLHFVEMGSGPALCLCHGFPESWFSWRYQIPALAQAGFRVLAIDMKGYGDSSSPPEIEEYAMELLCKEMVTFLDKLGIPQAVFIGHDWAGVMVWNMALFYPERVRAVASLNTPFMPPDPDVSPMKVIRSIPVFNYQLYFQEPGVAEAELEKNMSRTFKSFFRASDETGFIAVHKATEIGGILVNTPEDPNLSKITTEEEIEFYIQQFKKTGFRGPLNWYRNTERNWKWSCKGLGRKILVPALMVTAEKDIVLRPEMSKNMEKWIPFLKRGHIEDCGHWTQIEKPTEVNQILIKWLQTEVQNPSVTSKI

[2] = Table 2, MsEH 0.13 μM, read-out: Mouse sEH IC50
[3] = Table 1, MsEH 0.13 μM, read-out: Mouse sEH IC50

SMILES | IC50 (Human sEH (HsEH); Table 2) [µM] | IC50 [1, 2] [µM] | further results
C(=NC1CCCCC1)=NC1CCCCC1 | – | – | IC50 (Human sEH (HsEH); Table 1): 0.47 ± 0.01 µM; IC50 [1]: 0.25 ± 0.02 µM
O=C(Nc1ccc(Cl)cc1)Nc1ccc(Cl)c(Cl)c1 | – | – | IC50 (Human sEH (HsEH); Table 1): 0.12 ± 0.01 µM; IC50 [1]: 0.36 ± 0.02 µM
Cc1ccc(C(O)C2OC2c2ccc(-c3ccccc3)cc2)cc1 (racemic) | 0.15 ± 0.02 | 0.09 ± 0.01 | –
Cc1ccc(C(=O)C2OC2c2ccc(-c3ccccc3)cc2)cc1 (racemic) [R=4-C6H5—C6H4, R′=4-CH3—C6H4, X—Y=C═O, ±] | 0.19 ± 0.03 | 0.1 ± 0.01 | –
COC(c1ccccc1)C1OC1c1ccc(-c2ccccc2)cc1 (racemic) [R=4-C6H5—C6H4, R′=C6H5, X—Y=CH—OCH3, ±] | 1.36 ± 0.07 | 0.48 ± 0.05 | –
OC(c1ccccc1)C1OC1c1ccc(-c2ccccc2)cc1 (racemic) [R=4-C6H5—C6H4, R′=C6H5, X—Y=CH—OH, ±] | 0.72 ± 0.03 | 0.51 ± 0.04 | –
ON=C(c1ccccc1)C1OC1c1ccc(-c2ccccc2)cc1 (racemic) [R=4-C6H5—C6H4, R′=C6H5, X—Y=C═NOH, ±] | 35 ± 1 | 42 ± 3 | –
O=C(c1ccccc1)C1OC1c1ccc(-c2ccccc2)cc1 (racemic) [R=4-C6H5—C6H4, R′=C6H5, X—Y=C═O, ±] | 0.2 ± 0.01 | 0.14 ± 0.01 | –
[O-][S+](c1ccccc1)C1OC1c1ccc(-c2ccccc2)cc1 (racemic) [R=4-C6H5—C6H4, R′=C6H5, X—Y=S═O, ±] | 70 ± 3 | 73 ± 5 | –
OC(c1ccccc1)C1OC1c1ccc(F)cc1 (racemic) [R=4-F-C6H4, R′=C6H5, X—Y=CH—OH, ±] | 18 ± 2 | 72 ± 16 | –
O=C(c1ccccc1)C1OC1c1ccc(F)cc1 (racemic) [R=4-F-C6H4, R′=C6H5, X—Y=C═O, ±] | 0.3 ± 0.1 | 1.3 ± 0.3 | –
CC(O)C1OC1c1ccc([N+](=O)[O-])cc1 (racemic) [R=4-NO2—C6H4, R′=CH3, X—Y=CH—OH, ±] | 39 ± 1 | 6.5 ± 0.2 | –
CC(=O)C1OC1c1ccc([N+](=O)[O-])cc1 (racemic) [R=4-NO2—C6H4, R′=CH3, X—Y=C═O, ±] | 269 ± 5 | 163 ± 11 | –
O=[N+]([O-])c1ccc(C2OC2CO)cc1 (racemic) [R=4-NO2—C6H4, R′=H, X—Y=CH—OH, ±] | – | 5 ± 1 | –
COC(c1ccccc1)C1OC1c1ccccc1 (racemic) [R=C6H5, R′=C6H5, X—Y=CH—OCH3, ±] | 34 ± 1 | 103 ± 5 | –
OC(c1ccccc1)C1OC1c1ccccc1 (racemic) [R=C6H5, R′=C6H5, X—Y=CH—OH, ±] | 22 ± 2 | 12.6 ± 0.9 | –
ON=C(c1ccccc1)C1OC1c1ccccc1 (racemic) [R=C6H5, R′=C6H5, X—Y=C═NOH, ±] | 0.29 ± 0.01 | 3.5 ± 0.5 | –
O=C(c1ccccc1)C1OC1c1ccccc1 (racemic) [R=C6H5, R′=C6H5, X—Y=C═O, ±] | 0.3 ± 0.1 | 2.9 ± 0.3 | –
[O-][S+](c1ccccc1)C1OC1c1ccccc1 (racemic) [R=C6H5, R′=C6H5, X—Y=S═O, ±] | 0.31 ± 0.02 | 2.3 ± 0.4 | –
O=[N+]([O-])c1ccc([C@H]2O[C@@H]2CO)cc1 [R=4-NO2—C6H4, R′=H, X—Y=CH—OH, R, R] | – | 1200 ± 25 | –
O=[N+]([O-])c1ccc([C@@H]2O[C@H]2CO)cc1 [R=4-NO2—C6H4, R′=H, X—Y=CH—OH, S, S] | – | 1.6 ± 0.6 | –
OC[C@H]1O[C@@H]1c1ccccc1 [R=C6H5, R′=H, X—Y=CH—OH, R, R] | – | 1100 ± 23 | –
OC[C@@H]1O[C@H]1c1ccccc1 [R=C6H5, R′=H, X—Y=CH—OH, S, S] | – | 2400 ± 46 | –
O=C(Nc1cccc(Cl)c1)NC1CCCCC1 [compound 44] | – | – | IC50 [1, 3]: 0.07 ± 0.01 µM
O=C(NC1CCCCCCC1)NC1CCCCC1 [compound 58] | – | – | IC50 [1, 3]: 0.05 ± 0.01 µM
CC(C)c1ccc(NC(=O)NC2CCCCC2)cc1 [compound 66] | – | – | IC50 [1, 3]: 0.09 ± 0.01 µM
CCCCCCCCNC(=O)NCCCCCC [compound 175] | – | – | IC50 (Human sEH (HsEH); Table 1): 0.24 ± 0.01 µM
O=C(Nc1ccc(Cl)c(Cl)c1)Nc1ccc(Cl)c(Cl)c1 [compound 299] | – | – | IC50 (Human sEH (HsEH); Table 1): 0.26 µM
CCCCCCCCCCCCNC(=O)OC1CCCCC1 [compound 514] | – | – | IC50 [1, 3]: 0.27 ± 0.01 µM
CCCCCCCCCCCCCC(=O)NC1CCCCC1 [compound 515] | – | – | IC50 [1, 3]: 0.19 ± 0.05 µM
